Experimental data as given in ChEMBL document CHEMBL1158385, “New and selective ryanodine receptor activators for insect control” (Bioorg Med Chem, 2009).
Values after ≈ are worked out from the molar mass of the structure shown.

Assays:
C2C12 = assay: Selectivity for Heliothis virescens recombinant ryanodine receptor over ryanodine receptor 1 in mouse C2C12 cells; format: cell-based
[1] = Activation of ryanodine receptor in Periplaneta americana neurons
Heliothis virescens = assay: Insecticidal activity against Heliothis virescens larvae; format: functional, organism-based
Spodoptera frugiperda = assay: Insecticidal activity against Spodoptera frugiperda larvae; format: functional, organism-based
[2] = Octanol-water partition coefficient, log P at 20 degC; format: physicochemical
PC-12 = assay: Selectivity for Drosophila melanogaster ryanodine receptor over ryanodine receptor 2 in rat PC12 cells; format: cell-based
Ryanodine receptor 1 = Ryanodine receptor 1 (Mus musculus, UniProt E9PZQ0); assay: Activation of ryanodine receptor 1 in mouse C2C12 cells assessed as induction of calcium mobilization; format: cell-based
Ryanodine receptor 2 [3] = biological target: Ryanodine receptor 2 (Rattus norvegicus, UniProt B0LPN4); assay: Activation of ryanodine receptor 2 in rat PC12 cells assessed as induction of calcium mobilization; format: cell-based, PC-12
[4] = Solubility in water at 20 degC; format: physicochemical
Ryanodine receptor 2 [5] = biological target: Ryanodine receptor 2 (Homo sapiens, UniProt Q92736); assay: Activation of ryanodine receptor in human IMR32 cells assessed as induction of calcium mobilization; format: cell-based, IMR-32
Plutella xylostella = assay: Insecticidal activity against Plutella xylostella larvae; format: functional, organism-based
[6] = Activation of Heliothis virescens recombinant ryanodine receptor
[7] = Activation of ryanodine receptor-mediated calcium release in Heliothis virescens neurons
physchem = conditions: octanol/water
Description: Octanol-water partition coefficient, log P at 24.9 degC

Ryanodine receptor 2 (Homo sapiens, UniProt Q92736), sequence (Q92736 whole entry): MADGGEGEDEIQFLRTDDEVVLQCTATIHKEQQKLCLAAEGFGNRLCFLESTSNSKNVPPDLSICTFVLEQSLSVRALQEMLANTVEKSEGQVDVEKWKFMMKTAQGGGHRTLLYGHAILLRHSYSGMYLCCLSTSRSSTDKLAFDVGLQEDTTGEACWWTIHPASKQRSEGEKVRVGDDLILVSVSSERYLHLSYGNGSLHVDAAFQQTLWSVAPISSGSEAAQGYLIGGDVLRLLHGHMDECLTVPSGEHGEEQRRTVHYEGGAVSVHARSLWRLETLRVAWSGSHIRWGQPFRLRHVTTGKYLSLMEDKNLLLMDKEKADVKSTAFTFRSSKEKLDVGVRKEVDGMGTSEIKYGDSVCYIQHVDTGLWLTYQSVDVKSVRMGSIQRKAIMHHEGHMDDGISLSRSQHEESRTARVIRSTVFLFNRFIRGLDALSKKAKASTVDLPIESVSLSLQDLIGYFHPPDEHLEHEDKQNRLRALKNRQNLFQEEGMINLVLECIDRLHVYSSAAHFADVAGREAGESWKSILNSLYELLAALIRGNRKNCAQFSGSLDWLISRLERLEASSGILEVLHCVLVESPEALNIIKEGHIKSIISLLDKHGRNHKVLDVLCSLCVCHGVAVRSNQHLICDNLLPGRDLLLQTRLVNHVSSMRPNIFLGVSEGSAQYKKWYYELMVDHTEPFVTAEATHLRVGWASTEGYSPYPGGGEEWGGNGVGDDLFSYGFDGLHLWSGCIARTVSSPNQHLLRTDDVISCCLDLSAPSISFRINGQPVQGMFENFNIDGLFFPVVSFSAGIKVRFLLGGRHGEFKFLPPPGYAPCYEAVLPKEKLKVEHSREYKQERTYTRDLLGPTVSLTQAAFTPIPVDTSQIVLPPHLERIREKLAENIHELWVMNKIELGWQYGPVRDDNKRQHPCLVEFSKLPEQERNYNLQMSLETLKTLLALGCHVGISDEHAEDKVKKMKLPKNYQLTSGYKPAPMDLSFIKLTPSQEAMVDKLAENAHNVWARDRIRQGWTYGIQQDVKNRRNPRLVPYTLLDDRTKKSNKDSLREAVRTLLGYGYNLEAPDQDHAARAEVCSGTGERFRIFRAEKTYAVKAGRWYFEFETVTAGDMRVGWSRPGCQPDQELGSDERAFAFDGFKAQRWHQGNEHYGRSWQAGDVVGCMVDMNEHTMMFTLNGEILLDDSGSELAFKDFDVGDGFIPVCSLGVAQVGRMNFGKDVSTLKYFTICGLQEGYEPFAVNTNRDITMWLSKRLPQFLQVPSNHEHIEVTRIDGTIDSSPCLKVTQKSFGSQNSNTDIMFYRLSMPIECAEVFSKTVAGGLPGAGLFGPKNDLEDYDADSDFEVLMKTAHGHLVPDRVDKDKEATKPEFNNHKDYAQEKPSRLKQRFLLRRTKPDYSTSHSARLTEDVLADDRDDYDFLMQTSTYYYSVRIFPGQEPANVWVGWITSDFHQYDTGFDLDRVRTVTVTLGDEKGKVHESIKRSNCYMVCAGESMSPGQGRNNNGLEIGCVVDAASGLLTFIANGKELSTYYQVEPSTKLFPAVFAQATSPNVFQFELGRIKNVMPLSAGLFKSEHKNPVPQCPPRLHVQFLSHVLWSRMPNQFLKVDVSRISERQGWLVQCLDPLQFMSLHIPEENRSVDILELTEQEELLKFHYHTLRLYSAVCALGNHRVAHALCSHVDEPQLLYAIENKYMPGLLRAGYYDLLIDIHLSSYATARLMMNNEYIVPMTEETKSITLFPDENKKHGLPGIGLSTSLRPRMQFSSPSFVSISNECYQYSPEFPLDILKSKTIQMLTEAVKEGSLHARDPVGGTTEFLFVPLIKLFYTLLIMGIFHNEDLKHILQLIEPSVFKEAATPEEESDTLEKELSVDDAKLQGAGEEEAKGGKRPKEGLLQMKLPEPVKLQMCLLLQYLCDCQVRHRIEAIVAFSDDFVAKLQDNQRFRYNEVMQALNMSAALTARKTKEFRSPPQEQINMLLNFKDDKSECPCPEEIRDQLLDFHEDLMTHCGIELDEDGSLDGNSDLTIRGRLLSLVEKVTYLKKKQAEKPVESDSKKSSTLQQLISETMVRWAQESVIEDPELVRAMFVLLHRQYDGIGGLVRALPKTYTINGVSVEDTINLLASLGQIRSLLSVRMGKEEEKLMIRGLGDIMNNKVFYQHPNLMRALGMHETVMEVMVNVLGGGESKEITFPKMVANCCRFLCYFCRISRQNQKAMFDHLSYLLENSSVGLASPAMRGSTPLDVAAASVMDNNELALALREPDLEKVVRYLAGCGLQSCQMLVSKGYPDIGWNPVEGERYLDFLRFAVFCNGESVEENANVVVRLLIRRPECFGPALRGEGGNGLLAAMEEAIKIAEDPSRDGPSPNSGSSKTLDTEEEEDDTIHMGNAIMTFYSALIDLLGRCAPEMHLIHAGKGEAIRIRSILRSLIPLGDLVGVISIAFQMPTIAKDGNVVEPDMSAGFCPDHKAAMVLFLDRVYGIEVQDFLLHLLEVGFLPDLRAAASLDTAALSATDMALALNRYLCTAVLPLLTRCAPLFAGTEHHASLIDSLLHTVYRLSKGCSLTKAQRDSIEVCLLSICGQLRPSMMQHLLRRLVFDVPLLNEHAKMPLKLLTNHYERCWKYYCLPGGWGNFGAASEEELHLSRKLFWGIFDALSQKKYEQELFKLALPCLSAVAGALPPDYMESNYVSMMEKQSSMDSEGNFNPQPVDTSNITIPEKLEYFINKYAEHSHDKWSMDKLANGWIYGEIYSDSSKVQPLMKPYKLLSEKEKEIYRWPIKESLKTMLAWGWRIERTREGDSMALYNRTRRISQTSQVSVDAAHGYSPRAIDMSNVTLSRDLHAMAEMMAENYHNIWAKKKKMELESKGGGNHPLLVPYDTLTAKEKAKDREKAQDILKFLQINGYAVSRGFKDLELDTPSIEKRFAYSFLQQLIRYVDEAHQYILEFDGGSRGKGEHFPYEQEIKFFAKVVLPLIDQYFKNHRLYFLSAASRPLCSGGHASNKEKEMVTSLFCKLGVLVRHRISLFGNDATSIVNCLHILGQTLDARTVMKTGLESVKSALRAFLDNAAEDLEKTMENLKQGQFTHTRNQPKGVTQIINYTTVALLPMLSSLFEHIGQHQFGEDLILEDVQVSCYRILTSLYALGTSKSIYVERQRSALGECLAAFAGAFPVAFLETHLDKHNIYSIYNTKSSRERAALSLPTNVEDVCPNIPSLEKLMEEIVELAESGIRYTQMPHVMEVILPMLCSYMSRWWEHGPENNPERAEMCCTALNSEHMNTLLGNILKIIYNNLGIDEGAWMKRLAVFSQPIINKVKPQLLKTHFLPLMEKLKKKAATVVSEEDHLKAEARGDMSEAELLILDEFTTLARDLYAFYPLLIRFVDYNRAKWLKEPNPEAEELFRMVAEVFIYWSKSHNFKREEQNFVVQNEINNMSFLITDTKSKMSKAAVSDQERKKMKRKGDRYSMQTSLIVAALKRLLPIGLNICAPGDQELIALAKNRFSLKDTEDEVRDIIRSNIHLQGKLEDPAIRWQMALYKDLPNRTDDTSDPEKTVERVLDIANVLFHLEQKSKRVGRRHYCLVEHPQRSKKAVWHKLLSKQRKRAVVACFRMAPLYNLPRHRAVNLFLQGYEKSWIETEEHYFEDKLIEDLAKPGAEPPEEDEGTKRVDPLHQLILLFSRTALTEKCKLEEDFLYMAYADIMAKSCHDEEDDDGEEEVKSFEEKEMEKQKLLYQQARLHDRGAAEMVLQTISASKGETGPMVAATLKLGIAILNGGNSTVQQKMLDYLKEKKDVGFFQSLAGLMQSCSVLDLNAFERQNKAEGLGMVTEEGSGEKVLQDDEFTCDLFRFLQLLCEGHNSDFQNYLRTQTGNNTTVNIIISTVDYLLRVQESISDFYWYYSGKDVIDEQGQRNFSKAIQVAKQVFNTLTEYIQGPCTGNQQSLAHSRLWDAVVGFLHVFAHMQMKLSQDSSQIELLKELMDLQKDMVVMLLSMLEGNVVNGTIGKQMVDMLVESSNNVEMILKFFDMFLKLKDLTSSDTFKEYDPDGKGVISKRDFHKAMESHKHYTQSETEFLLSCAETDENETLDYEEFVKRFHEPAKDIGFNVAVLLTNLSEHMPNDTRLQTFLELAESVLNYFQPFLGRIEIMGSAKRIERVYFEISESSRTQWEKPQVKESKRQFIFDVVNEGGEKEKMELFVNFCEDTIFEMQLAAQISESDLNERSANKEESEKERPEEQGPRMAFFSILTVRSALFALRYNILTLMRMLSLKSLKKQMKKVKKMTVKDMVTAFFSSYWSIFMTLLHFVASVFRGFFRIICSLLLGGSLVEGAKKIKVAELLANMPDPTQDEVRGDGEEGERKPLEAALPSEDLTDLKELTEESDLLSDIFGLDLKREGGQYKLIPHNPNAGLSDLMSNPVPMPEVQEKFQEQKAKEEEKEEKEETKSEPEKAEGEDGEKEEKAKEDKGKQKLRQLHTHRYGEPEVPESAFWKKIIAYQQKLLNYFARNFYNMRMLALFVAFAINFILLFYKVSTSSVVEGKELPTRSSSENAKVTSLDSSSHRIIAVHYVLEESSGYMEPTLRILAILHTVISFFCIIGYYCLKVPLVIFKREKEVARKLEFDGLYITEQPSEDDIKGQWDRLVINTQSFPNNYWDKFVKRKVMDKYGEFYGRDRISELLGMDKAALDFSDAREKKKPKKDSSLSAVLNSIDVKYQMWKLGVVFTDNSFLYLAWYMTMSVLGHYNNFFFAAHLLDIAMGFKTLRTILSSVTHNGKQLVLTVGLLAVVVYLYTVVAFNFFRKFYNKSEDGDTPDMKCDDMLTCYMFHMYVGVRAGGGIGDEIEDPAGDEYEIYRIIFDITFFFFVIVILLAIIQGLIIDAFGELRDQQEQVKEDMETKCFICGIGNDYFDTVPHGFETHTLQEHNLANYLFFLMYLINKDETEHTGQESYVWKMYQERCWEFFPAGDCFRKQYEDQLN

SMILES | Selectivity ratio (C2C12) | EC50 [1] [nM] | EC50 (Heliothis virescens) [ppm] | EC50 (Spodoptera frugiperda) [ppm] | logP [2] | Selectivity ratio (PC-12) | EC50 (Ryanodine receptor 1) [nM] | EC50 (Ryanodine receptor 2 [3]) [nM] | solubility [4] [µg/mL] | EC50 (Ryanodine receptor 2 [5]) [nM] | EC50 (Plutella xylostella) [ppm] | EC50 [6] [nM] | EC50 [7] [nM] | logP (physchem)
CNC(=O)c1cc(Cl)cc(C)c1NC(=O)c1cc(Br)nn1-c1ncccc1Cl [CHLORANTRANILIPROLE] | > 2000 | 40 | 0.05 | 0.02 | 2.86 | 300 | 14000 | > 100000 | 1 (≈ 2.07 µM) | > 100000 | 0.01 | 40 |  | 
Cc1cc(C(F)(C(F)(F)F)C(F)(F)F)ccc1NC(=O)c1cccc(I)c1C(=O)NC(C)(C)CS(C)(=O)=O [FLUBENDIAMIDE] |  |  |  |  |  |  |  |  | 0.03 (≈ 0.044 µM) |  |  |  | 690 | 4.2
